Literature values in US20130109707A1, “FLUOROURACIL DERIVATIVES” (Concert Pharmaceuticals ,Inc., priority 2010, published 2013).

Conditions: patients treated with carmofur or with 5-fluorouracil; reported by Mixutani, Brain Nerve 2008

Row | SMILES | cases of leukoencephalopathy [%]
1 | O=c1[nH]cc(F)c(=O)[nH]1 [5-fluorouracil] | 0.026
2 | CCCCCCNC(=O)n1cc(F)c(=O)[nH]c1=O [carmofur, 5-fluoro-N-hexyl-2,4-dioxo-pyrimidine-1-carboxamide] | 0.026
